This is an account of results in patent publication US12344610B2, “APOL1 inhibitors and methods of use” (Maze Therapeutics, Inc., priority 2022, dated 2025).

The structures appear in SMILES notation. pEC50: −log10 of the molar value.

Experiment [1] has as its target T1, APOL1 G2 (Homo sapiens, UniProt O14791, DEL388-389).
T1 construct: expressed in transfected cells; host or cells: HEK293 T-REx clonal line stably expressing GCaMP6f (HEK T-REx/GCaMP6f/APOL1 G2 K6.3), doxycycline induced
T1 sequence (O14791 with tags, fused parts or gaps DEL388-389): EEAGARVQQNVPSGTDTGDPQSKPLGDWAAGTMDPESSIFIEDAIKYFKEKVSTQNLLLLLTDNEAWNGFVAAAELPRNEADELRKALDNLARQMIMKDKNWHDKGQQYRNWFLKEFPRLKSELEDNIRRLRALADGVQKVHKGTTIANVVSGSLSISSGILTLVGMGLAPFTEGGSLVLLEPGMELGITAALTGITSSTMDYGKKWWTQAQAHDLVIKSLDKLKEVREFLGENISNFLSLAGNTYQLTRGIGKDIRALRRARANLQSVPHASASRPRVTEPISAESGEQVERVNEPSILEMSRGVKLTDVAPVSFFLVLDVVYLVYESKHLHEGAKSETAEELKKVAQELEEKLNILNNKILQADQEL
Description: APOL1-mediated calcium transport (calcium influx) assay, HEK T-REx/GCaMP6f/APOL1 G2 K6.3 cells, FLIPR TETRA. It is filed as cell-based. The conditions noted are these: prevention of calcium influx; geometric mean of at least 2 assay runs; † = average of a technical replicate from a single assay run. The method, boiled down: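 A HEK293 T-REx clone stably expressing GCaMP6f had APOL1 G2 induced with doxycycline (20 ng/mL solution added) for 6 h. Cells were then washed into Ca2+-free Tyrode's buffer (pH 7.4) and preincubated with compounds (duplicate 8-point) for 10 min at room temperature. Ca2+ injection to 5 mM final produced FLIPR GCaMP fluorescence, giving AC50 for influx inhibition (geometric mean, ≥2 runs).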

The test system of experiment [2] is HEK293 cells overexpressing APOL1 G2. Description: APOL1 G2 HEK293 cell rescue assay (reversal of cell death caused by overexpression of APOL1). The conditions noted are these: Homo sapiens, HEK293, HEK293 overexpressing APOL1 G2; geometric mean of at least 2 assay runs; † = single assay run. The experiment is classed as cell-based. The method, boiled down: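 Each compound tested in duplicate wells on one plate per run, with values usually the geometric mean across at least two runs on different days, occasionally from one run only. Read-out: concentration giving half-maximal rescue of APOL1 G2 overexpression-induced death of HEK293 cells.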

With `C[C@]1(O)C[C@@H](n2c(=O)ccc3cc(OCCN4CCC5(CC4)C(=O)Nc4ccc(OC(F)F)cc45)cnc32)C1` [Compound 328, 5-(difluoromethoxy)-1′-[2-({7-oxo-8-[(cis)-3-hydroxy-3-methylcyclobutyl]-7,8-dihydro-1,8-naphthyridin-3-yl}oxy)ethyl]-1,2-dihydrospiro[indole-3,4′-piperidin]-2-one], the AC50 in experiment [1] came to 748 nM. Besides, the pEC50 in experiment [2] was 7.47.
As to `O=C1Nc2ccc(Cl)cc2C12CCN(CCOc1cnc(C3(CO)CC3)nc1)CC2` [Compound 333, 5-chloro-1′-[2-({2-[1-(hydroxymethyl)cyclopropyl]pyrimidin-5-yl}oxy)ethyl]-1,2-dihydrospiro[indole-3,4′-piperidin]-2-one], the AC50 in experiment [1] was found to be 486 nM. Besides, the pEC50 in experiment [2] is 7.37.
Turning to `CC(C)(CO)c1ncc(OCCN2CCC3(CC2)C(=O)Nc2ccc(Cl)cc23)cn1` [Compound 334, 5-chloro-1′-(2-{[2-(1-hydroxy-2-methylpropan-2-yl)pyrimidin-5-yl]oxy}ethyl)-1,2-dihydrospiro[indole-3,4′-piperidin]-2-one], the AC50 in experiment [1] amounted to 2000 nM. For the same compound, in experiment [2], the pEC50 is 6.96.
For `CP(C)(=O)C1(c2ccc(OCCN3CCC4(CC3)C(=O)Nc3ccc(Cl)cc34)cc2)CC1` [Compound 343, 5-chloro-1′-(2-{4-[1-(dimethylphosphoryl)cyclopropyl]phenoxy}ethyl)-1,2-dihydrospiro[indole-3,4′-piperidin]-2-one], the AC50 in experiment [1] worked out at 437 nM. Besides, in experiment [2], the pEC50 is 6.79.
For `C[C@]1(O)C[C@@H](N2C(=O)Cc3cc(OCCN4CCC5(CC4)C(=O)Nc4ccc(Cl)cc45)cnc32)C1` [Compound 345, 5-chloro-1′-[2-({2-oxo-1-[(cis)-3-hydroxy-3-methylcyclobutyl]-1H,2H,3H-pyrrolo[2,3-b]pyridin-5-yl}oxy)ethyl]-1,2-dihydrospiro[indole-3,4′-piperidin]-2-one], in that order: 469 nM and 7.44.
Consider `C[C@]1(O)C[C@@H](N2C(=O)Cc3cc(OCCN4CCC5(CC4)C(=O)Nc4ccc(C(F)F)cc45)cnc32)C1` [Compound 346, 5-(difluoromethyl)-1′-[2-({2-oxo-1-[(cis)-3-hydroxy-3-methylcyclobutyl]-1H,2H,3H-pyrrolo[2,3-b]pyridin-5-yl]oxy)ethyl]-1,2-dihydrospiro[indole-3,4′-piperidin]-2-one], for which the AC50 in experiment [1] turned out to be 557 nM. Further, the pEC50 in experiment [2] is 7.46.
For `C[C@]1(O)C[C@@H](n2ccc3cc(OCCN4CCC5(CC4)C(=O)Nc4ccc(Cl)cc45)cnc32)C1` [Compound 349, 5-chloro-1′-[2-({1-[(cis)-3-hydroxy-3-methylcyclobutyl]-1H-pyrrolo[2,3-b]pyridin-5-yl}oxy)ethyl]-1,2-dihydrospiro[indole-3,4′-piperidin]-2-one], in that order: 199 nM and 7.60.
For `C[C@]1(O)C[C@@H](n2ccc3cc(OCCN4CCC5(CC4)C(=O)Nc4ccc(C(F)F)cc45)cnc32)C1` [Compound 350, 5-(difluoromethyl)-1′-[2-({1-[(cis)-3-hydroxy-3-methylcyclobutyl]-1H-pyrrolo[2,3-b]pyridin-5-yl}oxy)ethyl]-1,2-dihydrospiro[indole-3,4′-piperidin]-2-one], in that order: 113 nM and 7.73.
Take `C[C@]1(O)C[C@@H](n2cnc3cc(OCCN4CCC5(CC4)C(=O)Nc4ccc(Cl)cc45)cc(C(F)(F)F)c32)C1` [Compound 352, 5-chloro-1′-[2-({1-[(cis)-3-hydroxy-3-methylcyclobutyl]-7-(trifluoromethyl)-1H-1,3-benzodiazol-5-yl}oxy)ethyl]-1,2-dihydrospiro[indole-3,4′-piperidin]-2-one]: the concentration at half-maximal activity (AC50) in experiment [1] turned out to be 597 nM. Besides, in experiment [2], the pEC50 was 8.07.
Take `C[C@]1(O)C[C@@H](N2C(=O)NCc3cc(OCCN4CCC5(CC4)C(=O)Nc4ccc(Cl)cc45)cnc32)C1` [Compound 356, 5-chloro-1′-[2-({2-oxo-1-[(cis)-3-hydroxy-3-methylcyclobutyl]-1H,2H,3H,4H-pyrido[2,3-d]pyrimidin-6-yl}oxy)ethyl]-1,2-dihydrospiro[indole-3,4′-piperidin]-2-one]: the AC50 in experiment [1] was 2490 nM. Moreover, the pEC50 in experiment [2] is 7.30.
For the compound `CC(C)(O)c1ncc(OCCN2CCC3(CC2)C(=O)Nc2ccc(Cl)cc23)cc1C(F)(F)F` [Compound 371, 5-chloro-1′-(2-{[6-(2-hydroxypropan-2-yl)-5-(trifluoromethyl)pyridin-3-yl]oxy}ethyl)-1,2-dihydrospiro[indole-3,4′-piperidin]-2-one], the AC50 in experiment [1] amounted to 504 nM. For the same compound, the pEC50 in experiment [2] is 7.76.
Regarding `C[C@]1(O)C[C@@H](n2c(=O)oc3cc(OCCN4CCC5(CC4)C(=O)Nc4ccc(Cl)cc45)cnc32)C1` [Compound 394, 5-chloro-1′-[2-({2-oxo-3-[(cis)-3-hydroxy-3-methylcyclobutyl]-2H,3H-[1,3]oxazolo[4,5-b]pyridin-6-yl}oxy)ethyl]-1,2-dihydrospiro[indole-3,4′-piperidin]-2-one], the AC50 in experiment [1] was determined as 250 nM. In addition, the pEC50 in experiment [2] is 7.62.
As to `O=C1Nc2ccc(Cl)cc2C12CCN(CCOc1cnc(N3CC4(CC(O)C4)C3)nc1)CC2` [Compound 396, 5-chloro-1′-{2-[(2-{6-hydroxy-2-azaspiro[3.3]heptan-2-yl}pyrimidin-5-yl)oxy]ethyl}-1,2-dihydrospiro[indole-3,4′-piperidin]-2-one], the AC50 in experiment [1] came to 531 nM. Besides, in experiment [2], the pEC50 was 7.39.
As for `CCC1(O)CN(c2ncc(OCCN3CCC4(CC3)C(=O)Nc3ccc(Cl)cc34)cn2)C1` [Compound 397, 5-chloro-1′-(2-{[2-(3-ethyl-3-hydroxyazetidin-1-yl)pyrinlidin-5-yl]oxy}ethyl)-1,2-dihydrospiro[indole-3,4′-piperidin]-2-one], in experiment [1], the AC50 came to 416 nM. In addition, the pEC50 in experiment [2] is 7.34.
On to `CC(CO)(c1ncc(OCCN2CCC3(CC2)C(=O)Nc2ccc(Cl)cc23)cc1C(F)(F)F)S(C)(=O)=O` (stereo not shown) [Compound 401, 5-chloro-1′-(2-{[6-(1-hydroxy-2-methanesulfonylpropan-2-yl)-5-(trifluoromethyl)pyridin-3-yl]oxy}ethyl)-1,2-dihydrospiro[indole-3,4′-piperidin]-2-one], for which the AC50 in experiment [1] came to 603 nM. For the same compound, the pEC50 in experiment [2] is 7.44.
With `C[C@]1(O)C[C@@H](n2ccc3cc(OCCN4CCC5(CC4)C(=O)Nc4ccc(C#N)cc45)cnc32)C1` [Compound 410, 2-oxo-1′-[2-({1-[(cis)-3-hydroxy-3-methylcyclobutyl]-1H-pyrrolo[2,3-b]pyridin-5-yl}oxy)ethyl]-1,2-dihydrospiro[indole-3,4′-piperidine]-5-carbonitrile], the AC50 in experiment [1] turned out to be 623 nM. The pEC50 in experiment [2] was 7.19.
For `CC(C)(O)c1ncc(OCCN2CCC3(CC2)C(=O)Nc2ccc(C#N)cc23)cc1C(F)(F)F` [Compound 411, 1′-(2-{[6-(2-hydroxypropan-2-yl)-5-(trifluoromethyl)pyridin-3-yl]oxy}ethyl)-2-oxo-1,2-dihydrospiro[indole-3,4′-piperidine]-5-carbonitrile], the concentration at half-maximal activity (AC50) in experiment [1] amounted to 436 nM. In addition, the pEC50 in experiment [2] was 7.65.

One may read the AC50 as the concentration at which the activity in the assay is half-maximal. By pEC50 is commonly meant −log10 of the EC50, conventionally taken in molar units.
